What was measured:
[1] = target: T1, transactivation domain of HPV11 E2 (TAD) (Human papillomavirus 11, UniProt P04015); assay: isothermal titration calorimetry of probe binding to the TAD; details: isothermal titration calorimetry with its non-tritiated homolog
T1 construct: HPV11 E2 amino acids 2* -215 (*Met-1 removed); made in house; host or cells: E. coli BL21 (DE3)pLysS, plasmid pET23a(+)
Experimental: Radiolabeled probe: The tritium labeled probe 1j binds to the TAD with a Kd of 40 nM, as determined by isothermal titration calorimetry with its non-tritiated homolog.
(§1) HPV-11 TAD: HPV11 E2 amino acids 2* -215 (*Met-1 removed) with an amino terminal epitope tag derived from the T7 phage gene 10 protein and a C-terminal His tag (SEQ ID NO.2). Total MW is 27 kDa.

[2] = target: T1, transactivation domain of HPV11 E2 (TAD); assay: HPV E2 transactivation domain (TAD) ligand displacement assay; type: binding
Source text: This assay measures the binding of a radiolabeled compound (“probe”) to the transactivation domain of HPV11 E2 (TAD). The protein binds to Ni-coated Flash plates, and the measured signal being proportional to the concentration of bound probe. If a test compound binds to the TAD, it will displace the probe, which will result in a lower signal.
as §1
25 mM MOPS, pH 7.0; 100 mM NaCl; 1 mM DTT; 0.0025% Tween-20. The pH was verified before adding DTT and Tween, and was adjusted where necessary. […]
TAD was diluted to 300 nM in assay buffer and used 20 μL […] dilution per well. […] This has a measurable effect on signal: background but little effect on z′ or measured inhibition (J.-H. Zhang, et al., 1999, J. Biomolecular Screening v4(2), 67-73). […]
The assay was performed in 96-well FlashPlates (PE/NEN). […] Plates were then sealed with TopCount-compatible sealing film, shaken briefly, incubated at room temperature, then counted on the TopCount after 3 hrs and again at 20 hrs.
The assay was run as described in Example 6. For each inhibitor concentration, the percent inhibition observed was calculated and the resulting inhibition curve was fit to a logistic using SAS. […]

T1 sequence (P04015 2-215): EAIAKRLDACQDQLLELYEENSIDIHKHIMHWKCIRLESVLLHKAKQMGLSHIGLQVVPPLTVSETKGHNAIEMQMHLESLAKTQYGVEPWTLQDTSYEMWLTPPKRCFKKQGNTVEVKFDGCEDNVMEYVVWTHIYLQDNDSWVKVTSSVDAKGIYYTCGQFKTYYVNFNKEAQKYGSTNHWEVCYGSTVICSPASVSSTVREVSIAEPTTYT

| Kd [1] [µM] | IC50 ([2]; counting at 20 hours, 50 nM TAD, 25 nM probe, FIG. 5) [µM] | IC50 ([2]; standard inhibitor, racemic mixture) [µM] | Compound |
| --- | --- | --- | --- |
| 0.04 | – | – | CC(=O)NCc1ccc(N2C(=O)[C@H]3[C@@H](C2=O)[C@@]2(O[C@H]3c3ccc(Br)c(Br)c3)C(=O)c3cc(C)sc3C2=O)cc1 [Compound 1j] |
| – | 4 ± 0.6 | ~10 | O=C(Nc1ccc2c(c1)OCO2)C1C(c2ccc(Cl)cc2)OC2(C(=O)c3ccccc3C2=O)C1C(=O)O (racemic) [Compound 3h] |

Source: patent publication US6825176B2, “E2 displacement assay for identifying inhibitors of HPV” (Boehringer Ingelheim (Canada) Ltd., priority 2002, dated 2004)
